Results taken from PMC8942775, “Lipidated Calcitonin Gene-Related Peptide (CGRP) Peptide Antagonists Retain CGRP Receptor Activity and Attenuate CGRP Action In Vivo” (Frontiers in Pharmacology, 2022).
Each block holds one molecule with its values, some of them ahead of it. Ends that are not written are not given here. Peptide text beside a SMILES is read from it. * marks the point of attachment. Ethyl(2-palmitoyloxy) = CCCCCCCCCCCCCCCC(=O)OCC*

How the values were obtained:
[1] = test system: endogenous CGRP action (capsaicin-induced dermal vasodilation); experiment: Capsaicin-induced dermal vasodilation (CIDV), laser Doppler imaging of the mouse ear; assay type: in vivo, C57BL/6J mice; conditions: for effect on CIDV response (antagonist screening): male and female C57BL/6J mice, single s.c. dose 10 min before anesthesia, αCGRP8-37 960 nmol/kg, olcegepant 1150 nmol/kg, K24C-palmitate 320 nmol/kg, capsaicin 60 μg/ear, flux AUC over 15 min vs saline, four to five mice per group; for effect on CIDV response at lower (mass-matched) dose: s.c., flux AUC over 15 min vs matched vehicle group, compared to V8C-palmitate and K24C-palmitate, 4-7 per group
Description: (§1) Experimental design is outlined in Figure 1. Male and female C57BL/6J mice were recruited at 10–12 weeks of age at 20–30 g bodyweight. Animals were randomly allocated to each treatment group. Antagonists were diluted from respective stock solutions into 37°C pre-warmed sterile 0.9% saline containing 0.1% BSA and DMSO at a final amount of 3.2%. The vehicle was 0.9% saline supplemented with 0.1% BSA and 3.2% DMSO. Antagonist or vehicle was administered subcutaneously at a volume of 10 ml/kg. The anesthetic was: ketamine at 10 mg/ml and xylazine at 1 mg/ml, dissolved in sterile 0.9% saline. This was administered via the intraperitoneal route at 10 ml/kg and the anesthetized mouse placed onto a heating pad to maintain constant body temperature. The head was positioned for the dorsal region of both ears to be aligned to the LDI2-HIR Laser Doppler Imager (Moor Instruments) above it. The imager scanned 40 cm from the ear at a scan speed of 4 ms/pixel, with a scan area of approximately 11.0 cm × 4.1 cm and 256 × 45 pixels resolution. This provided a scan rate of approximately 1 scan/min for both ears. Both ears were simultaneously scanned for 3 min to generate the baseline blood flow prior to capsaicin-challenge (Figure 1). Guided by earlier research ([Grant et al., 2002]), capsaicin (Sigma-Aldrich, St. Louis, MO, United States) dissolved in absolute ethanol was applied topically to the ear (60 μg/ear; 10 μl on both dorsal and ventral side). On the contralateral ear, ethanol was applied as a negative control. Both ears were then immediately scanned with the Laser Doppler imager for a continuous 15-min period to capture changes in blood flow (Figure 1).
Mice were administered subcutaneously with vehicle or antagonist (Figure 1A). Ten minutes later mice were anesthetized and placed on a heating pad. Ten minutes after anesthesia induction, measurement of dermal blood-flow commenced. Either a single dose of antagonist as specified in the figures was used or a dose-ranging study was conducted. For the dose-ranging study, either hαCGRP8-37 or hαCGRP8-37 V8C-palmitate (V8C-palmitate) at a dose of 320, 960 or 3,200 nmol/kg was used. Doses were selected based on existing literature and our own pilot trials to characterize optimal (and maximal/minimal) effective dose within the bounds of solubility limits ([Saxen et al., 1994]; [Grant et al., 2002]; [Gohin et al., 2015]; [Aubdool et al., 2016]).
Mice were administered subcutaneously with vehicle or either hαCGRP8-37 (960 nmol/kg) or V8C-palmitate (960 nmol/kg) at 10, 20, 30 or 60 min prior to anesthesia and baseline read (Figure 1A). Ten minutes after anesthesia induction, measurement of dermal blood-flow began. To study the time of onset of antagonist activity, a shorter period between treatment administration and capsaicin challenge was utilized (T0) (Figure 1B). Here, mice were anesthetized and placed on the heating pad prior to peptide administration. Immediately after peptide administration, measurement of dermal blood-flow began.
For laser doppler imaging (LDI) scans, mean flux values of the whole scanned ear region for both ethanol (control) and capsaicin-treated ears at each time point (per minute) were analyzed using the MoorLDI Review 6.1 software. Mean flux values were normalized to the mean flux values averaged from the three continuous baseline scans and a time course is generated. Area under the curve (AUC) of the % flux mean after capsaicin application (t ≥ 0) was measured for each animal, grouped and compared between different ears or treatment arms. […] Time courses and time points were compared using repeated measures two-way ANOVA with Bonferonni’s multiple comparisons test.

[2] = Solubility limit of the dosing solution; assay type: physicochemical; conditions: dosing vehicle 0.9% saline with 0.1% BSA and 3.2% DMSO; limited the maximum dose to 320 nmol/kg (10 ml/kg)
Description: as §1, with “Guided by earlier research ([Grant et al., 2002]), capsaicin (Sigma-Aldrich, St. Louis, MO, United States) dissolved in absolute ethanol was applied topically to the ear (60 μg/ear; 10 μl on both dorsal and ventral side). On the contralateral ear, ethanol was applied as a negative control. Both ears were then immediately scanned with the Laser Doppler imager for a continuous 15-min period to capture changes in blood flow (Figure 1).” left out

[3] = molecular target: T1, human CGRP receptor (CLR:RAMP1) (Homo sapiens, UniProt O60894+Q16602); experiment: cAMP assay, antagonism of αCGRP at the human CGRP receptor in transfected Cos-7 cells; assay type: cell-based; conditions: for pA2, CGRPr: non-lipidated analogues, single antagonist concentration 30 nM, agonist αCGRP, mean ± SEM of three independent experiments, SEM; for fold less potent compared to αCGRP8-37 at the CGRP receptor: from pA2 values at 30 nM
T1 construct: HA; myc; expressed in transfected cells; host or cells: Cos-7
Description: (§2) Data were analyzed using GraphPad Prism versions 7–9 (GraphPad Software Inc., San Diego, CA, Unite States). Concentration-response cAMP data were fitted via non-linear regression using a four-parameter logistic equation. An extra sum-of-squares F-test was conducted to determine whether the Hill slope was equal to one. […] The maximal (Emax) and minimal (Emin) responses were not constrained between independent experiments to obtain the pEC50 value.
(§3) The Schild slope was also constrained to one.

[4] = molecular target: T2, human AMY1 receptor (CTR/RAMP1) (Homo sapiens, UniProt O60894+P30988); experiment: cAMP assay, antagonism of αCGRP at the human AMY1 receptor in transfected Cos-7 cells; assay type: cell-based; conditions: for pA2, AMY1r: non-lipidated analogues, single antagonist concentration 30 nM, agonist αCGRP, mean ± SEM of three independent experiments, SEM
T2 construct: HA; myc; expressed in transfected cells; host or cells: Cos-7
Description: as §2, §3

T1 sequence (Q16602 23-461): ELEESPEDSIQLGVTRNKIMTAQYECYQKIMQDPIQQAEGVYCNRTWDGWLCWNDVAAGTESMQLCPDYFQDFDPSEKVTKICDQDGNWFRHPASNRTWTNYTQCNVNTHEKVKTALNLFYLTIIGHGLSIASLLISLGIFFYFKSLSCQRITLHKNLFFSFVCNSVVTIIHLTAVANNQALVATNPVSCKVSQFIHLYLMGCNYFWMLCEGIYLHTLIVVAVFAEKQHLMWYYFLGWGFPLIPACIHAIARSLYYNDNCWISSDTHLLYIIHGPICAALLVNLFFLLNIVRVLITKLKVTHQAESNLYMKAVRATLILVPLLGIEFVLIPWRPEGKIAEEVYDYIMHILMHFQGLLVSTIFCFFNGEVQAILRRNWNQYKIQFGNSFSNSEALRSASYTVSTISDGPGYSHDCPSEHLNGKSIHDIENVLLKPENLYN
T1 sequence (O60894 27-148): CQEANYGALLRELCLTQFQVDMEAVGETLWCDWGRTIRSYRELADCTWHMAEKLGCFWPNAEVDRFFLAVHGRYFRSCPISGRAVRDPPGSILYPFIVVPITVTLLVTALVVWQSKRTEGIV
T2 sequence (P30988 25-474): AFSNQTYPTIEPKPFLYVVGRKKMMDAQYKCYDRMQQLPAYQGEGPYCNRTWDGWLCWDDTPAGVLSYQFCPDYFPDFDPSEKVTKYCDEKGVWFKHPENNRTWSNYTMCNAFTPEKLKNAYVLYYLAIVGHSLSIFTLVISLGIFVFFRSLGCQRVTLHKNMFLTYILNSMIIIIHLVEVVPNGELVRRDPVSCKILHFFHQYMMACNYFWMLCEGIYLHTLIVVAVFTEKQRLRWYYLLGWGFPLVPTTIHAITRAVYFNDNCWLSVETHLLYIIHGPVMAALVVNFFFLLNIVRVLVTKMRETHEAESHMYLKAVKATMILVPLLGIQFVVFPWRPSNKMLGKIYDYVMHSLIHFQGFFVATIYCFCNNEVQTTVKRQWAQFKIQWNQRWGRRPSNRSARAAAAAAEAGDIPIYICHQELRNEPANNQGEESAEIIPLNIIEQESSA
T2 sequence (O60894 27-148): as the sequence (O60894 27-148) above

Molecule: CCCCCCCCCCCCCCCC(=O)OCCSC[C@H](NC(=O)[C@@H](NC(=O)[C@@H](NC(=O)CNC(=O)CNC(=O)[C@H](CO)NC(=O)[C@H](CCCNC(=N)N)NC(=O)[C@H](CO)NC(=O)[C@H](CC(C)C)NC(=O)[C@H](CC(C)C)NC(=O)CNC(=O)[C@H](C)NC(=O)[C@H](CC(C)C)NC(=O)[C@H](CCCNC(=N)N)NC(=O)[C@H](Cc1c[nH]cn1)NC(=O)[C@@H](NC(=O)[C@@H](N)C(C)C)[C@@H](C)O)C(C)C)C(C)C)C(=O)N[C@@H](CC(N)=O)C(=O)N[C@@H](CC(N)=O)C(=O)N[C@@H](Cc1ccccc1)C(=O)N[C@H](C(=O)N1CCC[C@H]1C(=O)N[C@H](C(=O)N[C@@H](CC(N)=O)C(=O)N[C@H](C(=O)NCC(=O)N[C@@H](CO)C(=O)N[C@@H](CCCCN)C(=O)N[C@@H](C)C(=O)N[C@@H](Cc1ccccc1)C(N)=O)C(C)C)[C@@H](C)O)C(C)C [K24C-palmitate] (H-VTHRLAGLLSRSGGVVC(Ethyl(2-palmitoyloxy))NNFVPTNVGSKAF-NH2; N-terminus assumed)
- effect on CIDV response (antagonist screening) [1]: attenuated the CIDV response
- solubility [2]: limited solubility at high concentrations

- fold reduction of antagonist activity compared to hαCGRP8-37 at CGRP receptor ([3]; from pKB values): ~70 fold
- fold reduction of antagonist activity compared to hαCGRP8-37 at AMY1 receptor ([4]; from pKB values): ~12 fold
Molecule: CCCCCCCCCCCCCCCC(=O)OCCSC[C@H](NC(=O)[C@H](CO)NC(=O)CNC(=O)[C@@H](NC(=O)[C@H](CC(N)=O)NC(=O)[C@@H](NC(=O)[C@@H]1CCCN1C(=O)[C@@H](NC(=O)[C@H](Cc1ccccc1)NC(=O)[C@H](CC(N)=O)NC(=O)[C@H](CC(N)=O)NC(=O)[C@H](CCCCN)NC(=O)[C@@H](NC(=O)[C@@H](NC(=O)CNC(=O)CNC(=O)[C@H](CO)NC(=O)[C@H](CCCNC(=N)N)NC(=O)[C@H](CO)NC(=O)[C@H](CC(C)C)NC(=O)[C@H](CC(C)C)NC(=O)CNC(=O)[C@H](C)NC(=O)[C@H](CC(C)C)NC(=O)[C@H](CCCNC(=N)N)NC(=O)[C@H](Cc1c[nH]cn1)NC(=O)[C@@H](NC(=O)[C@@H](N)C(C)C)[C@@H](C)O)C(C)C)C(C)C)C(C)C)[C@@H](C)O)C(C)C)C(=O)N[C@@H](C)C(=O)N[C@@H](Cc1ccccc1)C(N)=O [K35C-palmitate]

Molecule: CCCCCCCCCCCCCCCC(=O)OCCSC[C@H](N)C(=O)N[C@H](C(=O)N[C@@H](Cc1c[nH]cn1)C(=O)N[C@@H](CCCNC(=N)N)C(=O)N[C@@H](CC(C)C)C(=O)N[C@@H](C)C(=O)NCC(=O)N[C@@H](CC(C)C)C(=O)N[C@@H](CC(C)C)C(=O)N[C@@H](CO)C(=O)N[C@@H](CCCNC(=N)N)C(=O)N[C@@H](CO)C(=O)NCC(=O)NCC(=O)N[C@H](C(=O)N[C@H](C(=O)N[C@@H](CCCCN)C(=O)N[C@@H](CC(N)=O)C(=O)N[C@@H](CC(N)=O)C(=O)N[C@@H](Cc1ccccc1)C(=O)N[C@H](C(=O)N1CCC[C@H]1C(=O)N[C@H](C(=O)N[C@@H](CC(N)=O)C(=O)N[C@H](C(=O)NCC(=O)N[C@@H](CO)C(=O)N[C@@H](CCCCN)C(=O)N[C@@H](C)C(=O)N[C@@H](Cc1ccccc1)C(N)=O)C(C)C)[C@@H](C)O)C(C)C)C(C)C)C(C)C)[C@@H](C)O [V8C-palmitate]
- effect on CIDV response (antagonist screening) [1]: attenuated the CIDV response
- effect on CIDV, dose ranging, 320 nmol/kg ([1]; male mice, 320 nmol/kg s.c. 10 min before anesthesia, six mice per group): did not have a significant antagonist effect
- effect on CIDV, dose ranging, 960 nmol/kg ([1]; male mice, 960 nmol/kg s.c. 10 min before anesthesia, six mice per group): significantly reduced CIDV
- effect on CIDV, dose-duration study, T-10 ([1]; male mice, 960 nmol/kg s.c. 10 min prior to anesthesia and capsaicin application, six mice per group): attenuation evident only at T-10
- effect on CIDV, dose-duration study, T-60 ([1]; male mice, 960 nmol/kg s.c. 60 min prior to anesthesia and capsaicin application, six mice per group): disappearing by the T-60 timepoint
- effect on CIDV, dose ranging, 3,200 nmol/kg ([1]; male mice, 3,200 nmol/kg s.c. 10 min before anesthesia, six mice per group): significant antagonist effect

Molecule: NCCCC[C@H](NC(=O)[C@@H](Cc1cc(Br)c(O)c(Br)c1)NC(=O)N1CCC(N2Cc3ccccc3NC2=O)CC1)C(=O)N1CCN(c2ccncc2)CC1 [olcegepant, reference compound]
- effect on CIDV response (antagonist screening) [1]: attenuated the CIDV response

Molecule: CCCCCCCCCCCCCCCC(=O)OCCSC[C@H](N)C(=O)N[C@H](C(=O)N[C@H](C(=O)N[C@@H](Cc1c[nH]cn1)C(=O)N[C@@H](CCCNC(=N)N)C(=O)N[C@@H](CC(C)C)C(=O)N[C@@H](C)C(=O)NCC(=O)N[C@@H](CC(C)C)C(=O)N[C@@H](CC(C)C)C(=O)N[C@@H](CO)C(=O)N[C@@H](CCCNC(=N)N)C(=O)N[C@@H](CO)C(=O)NCC(=O)NCC(=O)N[C@H](C(=O)N[C@H](C(=O)N[C@@H](CCCCN)C(=O)N[C@@H](CC(N)=O)C(=O)N[C@@H](CC(N)=O)C(=O)N[C@@H](Cc1ccccc1)C(=O)N[C@H](C(=O)N1CCC[C@H]1C(=O)N[C@H](C(=O)N[C@@H](CC(N)=O)C(=O)N[C@H](C(=O)NCC(=O)N[C@@H](CO)C(=O)N[C@@H](CCCCN)C(=O)N[C@@H](C)C(=O)N[C@@H](Cc1ccccc1)C(N)=O)C(C)C)[C@@H](C)O)C(C)C)C(C)C)C(C)C)[C@@H](C)O)C(C)C [αCGRP7-37-palmitate]
- effect on CIDV response at lower (mass-matched) dose ([1]; male mice): weaker antagonist activities

- pA2, CGRPr [3]: 8.25 ± 0.11
- pA2, AMY1r [4]: 7.06 ± 0.15
Molecule: K24C αCGRP8-37: cysteine-substituted αCGRP8-37 analogue at Lys-24 (VTHRLAGLLSRSGGVVCNNFVPTNVGSKAF-NH2; ends and bridges not checked; UniProt P06881 90-119, looked up, variant K24C)

- pA2, CGRPr [3]: 8.85 ± 0.31
- pA2, AMY1r [4]: 7.04 ± 0.18
Molecule: K35C αCGRP8-37: cysteine-substituted αCGRP8-37 analogue at Lys-35

- fold less potent compared to αCGRP8-37 at the CGRP receptor [3]: 25 fold
- pA2, CGRPr [3]: 7.23 ± 0.07
- pA2, AMY1r [4]: 6.41 ± 0.15
Molecule: V8C αCGRP8-37: cysteine-substituted αCGRP8-37 analogue at Val-8 (CTHRLAGLLSRSGGVVKNNFVPTNVGSKAF-NH2; ends and bridges not checked; UniProt P06881 90-119, looked up, variant V8C)

- fold less potent compared to αCGRP8-37 at the CGRP receptor [3]: 4.5 fold
- pA2, CGRPr [3]: 7.98 ± 0.09
- pA2, AMY1r [4]: 7.10 ± 0.17
Molecule: αCGRP7-37: truncated peptide antagonist which retains the native Cys-7 residue (CVTHRLAGLLSRSGGVVKNNFVPTNVGSKAF; ends and bridges not checked; UniProt P06881 89-119, looked up, fragment)

Molecule: βCGRP8-37: human βCGRP fragment 8-37, synthesized in house
- effect on CIDV response at lower (mass-matched) dose ([1]; male mice): weaker antagonist activities
